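Results reflect a 48-hour exposure of cells in 96-well plates to compound at five concentrations. GI50 = concentration required for 50% inhibition of growth. TGI is the concentration that stops growth completely.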
Key:
Test in all cases: NCI-60 cell line screen, 48 h
A549 NSCLC = tested on: A549 NSCLC
SNB-75 CNS = tested on: SNB-75 CNS
T-47D breast = tested on: T-47D breast
MDA-MB-231 breast = tested on: MDA-MB-231 breast
NCI/ADR-RES ovarian = tested on: NCI/ADR-RES ovarian
HL-60(TB) leukemia = tested on: HL-60(TB) leukemia
SK-MEL-28 melanoma = tested on: SK-MEL-28 melanoma
MCF7 breast = tested on: MCF7 breast
HCT-15 colon = tested on: HCT-15 colon
IGROV1 ovarian = tested on: IGROV1 ovarian

Row | SMILES | GI50 (A549 NSCLC) | TGI (A549 NSCLC) | GI50 (SNB-75 CNS) | TGI (SNB-75 CNS) | GI50 (T-47D breast) | TGI (T-47D breast) | GI50 (MDA-MB-231 breast) | TGI (MDA-MB-231 breast) | GI50 (NCI/ADR-RES ovarian) | TGI (NCI/ADR-RES ovarian) | GI50 (HL-60(TB) leukemia) | TGI (HL-60(TB) leukemia) | GI50 (SK-MEL-28 melanoma) | TGI (SK-MEL-28 melanoma) | GI50 (MCF7 breast) | TGI (MCF7 breast) | GI50 (HCT-15 colon) | TGI (HCT-15 colon) | GI50 (IGROV1 ovarian) | TGI (IGROV1 ovarian)
1 | COC(=O)c1c2c(c(C)[n+]([O-])c1C)C(=O)C(NCc1ccc(OC)cc1)=CC2=O | 2900 nM | 10.2 µM | 3.5 µM | 14.3 µM | 2.12 µM | 5.47 µM | 2200 nM | 6.14 µM | 2.42 µM | 7.49 µM | 1670 nM | 5.25 µM | 2950 nM | 11.3 µM | 1410 nM | 3.35 µM | 1640 nM | 3.72 µM | 1500 nM | 3.45 µM
2 | CCN1CCN(CCC(=O)Nc2cccc(-n3cc(-c4ccncc4)c(-c4ccc(Cl)c(OC)c4)n3)c2)CC1 | 593 nM | 2.29 µM | 0.392 µM | 6.82 µM | 0.841 µM | 4.7 µM | 1210 nM | 2.92 µM | 1.27 µM | 4.29 µM | 340 nM | 1.13 µM | 1390 nM | 2.97 µM | 267 nM | 1.45 µM | 491 nM | 2.16 µM | 1090 nM | 5.18 µM
3 | CC1(C)N=C(N)N=C(N)N1c1ccc(OCCCNC(=O)Nc2ccc(S(=O)(=O)F)cc2)c(Cl)c1 | 73.2 nM | > 100 µM | 1.02 µM | 50 µM | 5.65 µM | > 100 µM | 3340 nM | > 100 µM | 98.5 µM | > 100 µM | 113 nM | > 65.3 µM | 1740 nM | > 100 µM | 238 nM | > 100 µM | 6620 nM | > 100 µM | 281 nM | > 100 µM
4 | CCOC(=O)c1noc2c1CCc1c-2cn(Cc2ccc(OC)cc2)c1-c1cc(OC)c(OC)c(OC)c1 | 3800 nM | > 100 µM | 3.65 µM | > 100 µM | > 100 µM | > 100 µM | 2700 nM | > 100 µM | 3.52 µM | > 100 µM | 452 nM | 4.89 µM | 1900 nM | > 100 µM | 348 nM | > 100 µM | 499 nM | > 100 µM | 2450 nM | > 100 µM
5 | O=c1[nH]c2ccccc2n1C1CCNCC1 | > 100000 nM | > 100 µM | > 100 µM | > 100 µM | > 100 µM | > 100 µM | > 100000 nM | > 100 µM | > 100 µM | > 100 µM | > 100000 nM | > 100 µM | > 100000 nM | > 100 µM | > 100000 nM | > 100 µM | > 100000 nM | > 100 µM | > 100000 nM | > 100 µM
6 | Cc1ccc(N)c(S)c1 |  | 40.6 µM |  | 40.5 µM |  | 33.9 µM |  | 31.3 µM |  | 56.8 µM |  | 58.5 µM |  | 47.6 µM |  | 38.8 µM |  | 30.4 µM |  | 31.5 µM
